According to patent publication US5935958A, “Muscarinic antagonists” (Schering Corporation, priority 1997, dated 1999):
pKi: −log10 of the molar value.

Tests used:
[1] = biological target: T1, cloned human m2 muscarinic receptor (Homo sapiens, UniProt P08172); test: Muscarinic binding, inhibition of 3H-QNB binding, m2; conditions: for m1/m2 (Ki ratio): Ki for m1 receptors divided by Ki for m2 receptors, higher ratio = greater m2 selectivity; for m4/m2 (Ki ratio): Ki for m4 divided by Ki for m2; for m1/m2 and m4/m2 ratios, in words: tests reported in Table 1
T1 construct: expressed in transfected cells; host or cells: CHO (stably transfected), membranes
T1 sequence (P08172 1-466): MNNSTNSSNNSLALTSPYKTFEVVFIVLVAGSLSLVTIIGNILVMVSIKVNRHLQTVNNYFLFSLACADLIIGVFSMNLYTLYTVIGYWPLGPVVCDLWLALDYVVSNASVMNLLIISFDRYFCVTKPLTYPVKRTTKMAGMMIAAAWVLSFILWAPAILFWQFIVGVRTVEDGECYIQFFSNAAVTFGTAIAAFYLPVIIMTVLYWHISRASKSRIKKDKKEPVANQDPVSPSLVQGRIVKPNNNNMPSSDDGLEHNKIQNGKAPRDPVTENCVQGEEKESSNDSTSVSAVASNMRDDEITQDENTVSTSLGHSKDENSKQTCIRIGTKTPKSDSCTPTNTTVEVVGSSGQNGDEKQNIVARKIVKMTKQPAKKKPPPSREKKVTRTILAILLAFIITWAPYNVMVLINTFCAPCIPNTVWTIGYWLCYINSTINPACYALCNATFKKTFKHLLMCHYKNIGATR

[2] = test system: m2 muscarinic; conditions: Baumgold et al., Eur. J. Pharmacol., 251 (1994) 315-317; cited from earlier work
[3] = biological target: T2, cloned human m4 muscarinic receptor (Homo sapiens, UniProt P08173); test: Muscarinic binding, inhibition of 3H-QNB binding, m4; conditions: CHO cell membranes, 25° C., 90 minutes
T2 construct: expressed in transfected cells; host or cells: CHO (stably transfected), membranes
T2 sequence (P08173 1-479): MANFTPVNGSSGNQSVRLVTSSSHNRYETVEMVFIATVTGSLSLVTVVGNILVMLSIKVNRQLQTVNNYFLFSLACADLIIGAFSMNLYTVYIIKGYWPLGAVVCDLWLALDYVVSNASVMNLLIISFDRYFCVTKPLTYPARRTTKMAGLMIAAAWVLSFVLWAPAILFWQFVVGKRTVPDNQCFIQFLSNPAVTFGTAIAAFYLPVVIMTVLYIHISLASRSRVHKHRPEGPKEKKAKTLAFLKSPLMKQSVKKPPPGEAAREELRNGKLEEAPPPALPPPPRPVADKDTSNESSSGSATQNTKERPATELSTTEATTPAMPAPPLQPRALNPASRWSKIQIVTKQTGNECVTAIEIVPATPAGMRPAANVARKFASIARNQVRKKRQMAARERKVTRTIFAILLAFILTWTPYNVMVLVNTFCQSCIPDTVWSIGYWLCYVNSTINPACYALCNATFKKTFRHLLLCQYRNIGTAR

[4] = biological target: T3, cloned human m1 muscarinic receptor (Homo sapiens, UniProt P11229); test: Muscarinic binding, inhibition of 3H-QNB binding, m1; conditions: CHO cell membranes, 25° C., 90 minutes
T3 construct: expressed in transfected cells; host or cells: CHO (stably transfected), membranes
T3 sequence (P11229 1-460): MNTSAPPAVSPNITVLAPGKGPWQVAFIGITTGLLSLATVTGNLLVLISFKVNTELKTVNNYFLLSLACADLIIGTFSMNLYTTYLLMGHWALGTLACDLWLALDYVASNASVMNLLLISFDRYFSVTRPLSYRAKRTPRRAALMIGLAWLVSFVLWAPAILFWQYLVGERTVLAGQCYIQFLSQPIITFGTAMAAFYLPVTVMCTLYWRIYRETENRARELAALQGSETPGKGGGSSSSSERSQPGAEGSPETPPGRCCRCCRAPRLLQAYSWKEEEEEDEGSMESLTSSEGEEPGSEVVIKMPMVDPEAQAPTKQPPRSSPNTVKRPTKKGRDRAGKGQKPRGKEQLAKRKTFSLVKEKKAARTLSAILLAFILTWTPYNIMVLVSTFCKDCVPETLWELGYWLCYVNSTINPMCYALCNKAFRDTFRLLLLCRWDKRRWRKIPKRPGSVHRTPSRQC

| Structure (SMILES) | m1/m2 (Ki ratio) [1] | m4/m2 (Ki ratio) [1] | other results |
| --- | --- | --- | --- |
| c1cnc(Oc2ccc3c(c2)CCC3N2CCN(C3CCCCC3)CC2)nc1 (single isomer, unassigned) [Compound 10] | 13.2 | 1.5 | m1/m2 and m4/m2 ratios, in words [1]: useful values of the m1/m2 and m4/m2 ratios |
| c1cnc(Oc2ccc3c(c2)CCC3N2CCN(C3CCCCC3)CC2)nc1 (single isomer, unassigned) [Compound 11] | 3.6 |  |  |
| COc1ccc(S(=O)(=O)c2ccc3c(c2)CCC3N2CCN(C3CCCCC3)C[C@H]2C)cc1 (single isomer, unassigned) [Compound 14] | 18.4 | 2.6 | m1/m2 and m4/m2 ratios, in words [1]: useful values of the m1/m2 and m4/m2 ratios |
| COc1ccc(S(=O)(=O)c2ccc3c(c2)CCC3N2CCN(C3CCCCC3)C[C@H]2C)cc1 (single isomer, unassigned) [Compound 15] | 11.2 | 2.5 | m1/m2 and m4/m2 ratios, in words [1]: useful values of the m1/m2 and m4/m2 ratios |
| C[C@H]1CC[C@@H]2N(C1)C[C@H]1[C@@H]3C[C@H]4[C@@H](CC(=O)[C@H]5C[C@@H](Cl)CC[C@@]54C)[C@@H]3CC[C@H]1[C@]2(C)O [3-α-chloroimperialine] |  |  | m2 muscarinic antagonist selectivity, in words [2]: highly selective m2 muscarinic antagonist |
| O=S(=O)(c1ccccc1)c1ccc2c(c1)CCC2N1CCN(CCO)CC1 (stereo not shown) [Compound 1] | 4.5 | 1.3 |  |
| O=[N+]([O-])c1ccc(Oc2ccc3c(c2)OCCC3N2CCN(C3CCCCC3)CC2)cc1 (stereo not shown) [Compound 2, 1-Cyclohexyl-4-[7-[(4-nitrophenyl)oxy]-chroman-4-yl]-piperazine] | 1.5 |  |  |
| Nc1ccc(Oc2ccc3c(c2)OCCC3N2CCN(C3CCCCC3)CC2)cc1 (stereo not shown) [Compound 3] | 0.6 | 0.3 |  |
| CC(=O)Nc1ccc(Oc2ccc3c(c2)OCCC3N2CCN(C3CCCCC3)CC2)cc1 (stereo not shown) [Compound 4] | 1.0 | > 0.9 |  |
| c1cnc(Oc2ccc3c(c2)CCCC3N2CCN(C3CCCCC3)CC2)nc1 (stereo not shown) [Compound 5, 4-Cyclohexyl-1-piperazinyl-[6-[(2-pyrimidinyl)oxy]]-1,2,3,4-tetrahydro-naphthalene] | 7.5 | 1.6 |  |
| O=[N+]([O-])c1ccc(Oc2ccc3c(c2)CCCC3N2CCN(C3CCCCC3)CC2)cc1 (stereo not shown) [Compound 6] | 6.6 | 0.8 |  |
| Nc1ccc(Oc2ccc3c(c2)CCCC3N2CCN(C3CCCCC3)CC2)cc1 (stereo not shown) [Compound 7] | 4.0 | 0.8 |  |
| c1cnc(Oc2ccc3c(c2)CCCCC3N2CCN(C3CCCCC3)CC2)nc1 (stereo not shown) [Compound 8] | 3.3 | 0.9 | pKi ([1]; 3H-QNB binding, CHO cell membranes, 25° C., 90 minutes): 7.57; pKi [3]: 7.64; pKi [4]: 7.06 |
| c1cnc(Oc2ccc3c(c2)CCC3N2CCN(C3CCCCC3)CC2)nc1 (stereo not shown) [Compound 9] | 7.7 |  | m1/m2 and m4/m2 ratios, in words [1]: useful values of the m1/m2 and m4/m2 ratios |
| c1cnc(Oc2ccc3c(c2)CC(CC2CCCCC2)C3N2CCN(C3CCCCC3)CC2)nc1 (stereo not shown) [Compound 12, 2-[[1-(4-Cyclohexyl-1-piperazinyl)-2-(cyclohexylmethyl)-2,3-dihydro-1H-inden-5-yl]oxy]pyrimidine] | 1.9 |  |  |
| COc1ccc(S(=O)(=O)c2ccc3c(c2)CCC3N2CCC(N3CCCCC3)CC2)cc1 (stereo not shown) [Compound 13] | 4.0 | 2.0 |  |
